Data taken from patent publication US8188143B2, “Pharmaceutical composition useful as acetylcholinesterase inhibitors” (Council of Scientific and Industrial Research, priority 2006, dated 2012).
Entries after “also recorded” stand apart in the source; their conditions may differ. Like-named read-outs stand apart in the source and are kept apart here.

Key:
[1] = system: Scopolamine induced deficit in passive avoidance test in mice; test: Single trial passive avoidance test, scopolamine induced deficit (in vivo); conditions: for In Vivo (passive avoidance test, significance of TLT increase): scopolamine induced deficit, oral for 3 days; for In Vivo (passive avoidance test, significance of TLT increase) / effectiveness in passive avoidance test (in vivo), in words: mice; for TLT on 2nd trial as compared to 1st trial after scopolamine: mice pretreated po x 3 days (100 mg/kg FIG. 1a; 50 mg/kg FIG. 1b), scopolamine 5 min prior to 1st trial; for effectiveness in passive avoidance test (in vivo), in words: scopolamine induced memory deficit
Procedure: Single trial passive avoidance is widely used as experimental test to assess learning memory functions in rodents. Scopolamine induced impairment in passive avoidance (in vivo) and inhibition of acetylcholinesterase (in vitro) in rodents are commonly employed and screening test to predict potential of an acetylcholinesterase inhibitor as cognitive enhancer (anti-dementic) drug.
Passive Avoidance Test (In Vivo):
The study was conducted in adult Swiss male mice of 3-4 months (wt. 20-25 g) were kept in standard housing condition with 12 h light and dark cycle. The food and water were available ad libitum.
The mice were subjected to single trial passive avoidance test as described by Brioni.
The passive avoidance test was studied by a computerized shuttle box (Columbus Instruments, Ohio, USA) provided with a software program PACS 30. The shuttle box is comprised of two compartments. An automated door was used to isolate the compartments. After an exploration period of 30 s for acclimatization the animal was subjected to a trial of 270 seconds. Each mouse was placed in the bright compartment and on transfer into the dark compartment it was given an electric shock (0.5 mA for 5 s) through floor grid. The transfer of mice from the bright to dark compartment was recorded as transfer latency time (TLT) in seconds. TLT was recorded in control and treated groups (1st Trial, acquisition) and then after 24 h (2nd Trial, retention). An increase in the TLT on 2nd Trial (retention) as compared to 1st Trial (acquisition) was taken as the criterion for successful learning and memory (cognitive activity).
Scopolamine Induced Deficit (Dementia)
Scopolamine, a muscarinic antagonist known to produce impairment in cognitive functions (dementia) in human as well as in experimental animals, was used to produce deficit (no significant increase on 2nd trial) in passive avoidance learning. Scopolamine was administered 5 min prior to 1st trial. Reversal of scopolamine induced deficit i.e. significant increase in 2nd trial by test substance indicates potential anti-dementia activity. […].
The test substance Columbianetin was administered orally in dose of 100 m/kg (1% aqueous suspension in gum acacia) for 3 days. The treated animals were subjected to 1st trial after 60 min of 3rd dose of test substance. Scopolamine was administered 5 min prior to 1st trial in test group.
The control group received 1 ml/kg of vehicle (1% aqueous suspension in gum acacia) orally for 3 days. Among the control mice half (n=5) received scopolamine 5 min prior to 1st trial (Control—dementia) and the remaining half were subjected to passive avoidance test (Control—trained).
Level of p value<0.05 indicates statistically significant difference.
Mean values and standard error (S.E.) of mean were calculated for TLT and specific activity of AChE in the different regions of brain samples of each group. The significance of difference between the values of AChE activity and TLT of two groups was determined by one-way ANOVA test that followed by Dunnett's test.

[2] = biological target: T1, Acetylcholinesterase (AChE) (Rattus norvegicus, UniProt P37136); test: Acetylcholinesterase (AChE) assay in brain (in vitro), Ellman method; format: biochemical
T1 construct: Aliquots of this supernatant was diluted in the ratio of 1:10 and used as a source of enzyme for the assay; from tissue; host or cells: whole brain of adult male SD rats; 100,000 x g supernatant of a 10% homogenate with Triton X-100
T1 sequence (P37136 32-614): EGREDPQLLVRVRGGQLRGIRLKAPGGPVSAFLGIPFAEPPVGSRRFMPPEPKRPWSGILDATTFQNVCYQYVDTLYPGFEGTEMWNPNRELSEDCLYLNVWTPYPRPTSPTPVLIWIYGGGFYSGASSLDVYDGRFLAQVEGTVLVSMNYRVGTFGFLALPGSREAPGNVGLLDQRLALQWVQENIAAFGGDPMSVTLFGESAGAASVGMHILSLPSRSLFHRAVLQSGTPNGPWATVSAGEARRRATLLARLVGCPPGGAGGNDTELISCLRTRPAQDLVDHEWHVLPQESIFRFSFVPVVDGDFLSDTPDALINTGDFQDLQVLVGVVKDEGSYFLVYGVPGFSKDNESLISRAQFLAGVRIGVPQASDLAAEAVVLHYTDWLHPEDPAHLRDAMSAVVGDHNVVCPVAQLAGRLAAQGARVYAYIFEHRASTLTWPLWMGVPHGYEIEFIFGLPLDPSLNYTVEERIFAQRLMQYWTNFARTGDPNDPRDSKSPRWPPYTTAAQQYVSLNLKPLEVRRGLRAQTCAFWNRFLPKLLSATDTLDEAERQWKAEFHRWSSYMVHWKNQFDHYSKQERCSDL
Procedure: Acetylcholinesterase (AChE) Assay in Brain (In Vitro)
The study was conducted in adult SD male rats (200-250 g). The rats were perfused under mild ether anesthesia through heart with ice cooled normal saline (0.9% NaCl) to reduce blood-borne cholinesterase from the brain. After perfusion the whole brain was taken out. A 10% (w/v) homogenate of brain was prepared first by homogenizing in an Ultra-Turrax T25 homogenizer at a speed of 9500 rpm thrice giving intervals for few seconds in between the runs, with sodium phosphate buffer (30 mmol/lit, pH 7.0). Sodium phosphate buffer was taken in a volume half to the final volume required for 10% homogenate.
1% Triton X-100 (1% w/v in 30 mmol/lit. sodium phosphate buffer, pH 7.0) is then added in a volume to make the final volume for 10% homogenate, slowly while stirring the homogenate on ice. The homogenate was centrifuged at 100,000×g at 4° C. in a Beckman Ultracentrifuge (LE 80) using a fixed angle rotor (80 Ti) for 60 min. Supernatant was collected and stored at 4° C. Aliquots of this supernatant was diluted in the ratio of 1:10 and used as a source of enzyme for the assay.
The assay of AChE was performed according to method described by Ellman et al. A kinetic profile of the enzyme activity was studied spectrophotometrically at 412 nm at an interval of 15 s. The assay for each sample was run in duplicate and each experiment was performed thrice. The specific activity of AChE is expressed in μmoles/min/mg of protein. The test substance (dissolved in DMSO) was incubated with enzyme source in concentration of 100 μg/1 ml of reaction mixture for 30 min at 37° C. prior to obtain kinetic profile of AChE activity. The AChE inhibitory activity was calculated on the basis of % decrease change from control values.
Protein was estimated in the brain samples by modified Lowry's method. Bovine serum albumin (BSA) was used as standard in the concentration of 1 mg/ml. was estimated in the range of 0.01-0.1 mg/ml. […]

[3] = system: Scopolamine induced deficit in passive avoidance test in mice; test: Single trial passive avoidance test, scopolamine induced deficit (in vivo); conditions: po + scopolamine, % increase in TLT of 2nd trial from TLT of 1st trial
[4] = 0.5 h; 100 μg/1 ml of reaction mixture, incubated 30 min at 37° C., rat brain enzyme source; read-out: In Vitro %) (AChE inhibitory activity, % decrease change from control)

SMILES	In Vivo (passive avoidance test, significance of TLT increase) [1]	inhibition at 100 µg/mL [2, 4]	further results
CC(C)(O)[C@@H]1Cc2cc3ccc(=O)oc3cc2O1 (racemic) [(±) Marmesin]	Significant activity (P < 0.01)		In Vitro %) (AChE inhibitory activity, % decrease change from control) ([2]; 100 μg/1 ml of reaction mixture, incubated 30 min at 37° C., rat brain enzyme source): 23.91%
CC(=O)Oc1ccc2c(C)cc(=O)oc2c1OC(C)=O [4-Methyl-7,8-diacetyloxycoumarin]	No significant activity	24%	
Cc1cc(=O)oc2c(OCc3ccccc3)c(OCc3ccccc3)ccc12 [4-Methyl-7,8-dibenzyloxycoumarin]	No significant activity	24.1%	
Cc1cc(=O)oc2c(O)c(O)ccc12 [4-Methyl-7,8-dihydroxycoumarin]	No significant activity	14.1%	
COc1ccc2c(C)cc(=O)oc2c1OC [4-Methyl-7,8-dimethoxycoumarin]	No significant activity	14.2%	
CC(=O)Oc1ccc2c(C)cc(=O)oc2c1 [4-Methyl-7-acetyloxycoumarin]	Significant activity (P < 0.01)	23.9%	TLT on 2nd trial as compared to 1st trial after scopolamine [1]: significant increase in TLT on 2nd trial
Cc1cc(=O)oc2cc(O)ccc12 [4-Methyl-7-hydroxycoumarin]	High significant activity	17.4%	TLT on 2nd trial as compared to 1st trial after scopolamine [1]: significant increase in TLT on 2nd trial; effectiveness in passive avoidance test (in vivo), in words [1]: most effective; % Memory retention ([3]; AP20am samples 50 mg/kg): 376%
COc1ccc2c(C)cc(=O)oc2c1 [4-Methyl-7-methoxycoumarin]	No significant activity	48.9%	effectiveness in passive avoidance test (in vivo), in words [1]: effective
CC(=O)Oc1ccc2ccc(=O)oc2c1 [7-Acetyloxycoumarin]	High significant activity	39.1%	TLT on 2nd trial as compared to 1st trial after scopolamine [1]: significant increase in TLT on 2nd trial; effectiveness in passive avoidance test (in vivo), in words [1]: most effective; also recorded: effective; % Memory retention ([3]; AP20am samples 50 mg/kg): 321%
C=CCOc1ccc2ccc(=O)oc2c1 [7-Allyloxycoumarin]	Significant activity (P < 0.05)		TLT on 2nd trial as compared to 1st trial after scopolamine [1]: significant increase in TLT on 2nd trial
O=c1ccc2ccc(OCc3ccccc3)cc2o1 [7-Benzyloxycoumarin]	Significant activity		TLT on 2nd trial as compared to 1st trial after scopolamine [1]: significant increase in TLT on 2nd trial
C#CC(C)(C)c1ccc2ccc(=O)oc2c1 [7-Dimethylpropargylcoumarin]	No significant activity		
CC(C)=CCc1cc2ccc(=O)oc2cc1O [7-Hydroxy-6-prenylcoumarin]	No significant activity		inhibition at 100 µg/mL ([2]; 0.5 h, read-out: In Vitro %) (AChE inhibitory activity, % decrease change from control)): 42.2%
CC(C)=CCc1c(O)ccc2ccc(=O)oc12 [7-Hydroxy-8-prenylcoumarin]	No significant activity		
O=c1ccc2ccc(O)cc2o1 [7-Hydroxycoumarin]	No significant activity		
COc1ccc2ccc(=O)oc2c1 [7-Methoxycoumarin]	High significant activity	25.2%	TLT on 2nd trial as compared to 1st trial after scopolamine [1]: significant increase in TLT on 2nd trial; effectiveness in passive avoidance test (in vivo), in words [1]: most effective; % Memory retention ([3]; AP20am samples 50 mg/kg): 295%
CC(C)=CCOc1ccc2ccc(=O)oc2c1 [7-Prenyloxycoumarin]	No significant activity		
CC(C)(O)[C@@H]1Cc2c(ccc3ccc(=O)oc23)O1 [Columbianetin]	No significant activity	13.9%	
CC1(C)CCc2cc3ccc(=O)oc3cc2O1 [Dihydroxanthyletin]	No significant activity	37.8%	
COc1cc2c(cc1OC)C(=O)C(CC1CCN(Cc3ccccc3)CC1)C2 (centres unmarked) [Donepezil, reference compound]			% Memory retention ([3]; Standard drug Donepezil 10 mg/kg): 288%
CC1(C)C=Cc2c(ccc3ccc(=O)oc23)O1 [Seselin]	No significant activity		
